Laboratory results published in US20040149200A1, “Crystals of an oligosaccharides and process for preparation thereof” (priority 2001, published 2004).

Experiment: Storage stability of Oligosaccharide Crystals (I) and freeze-dried Oligosaccharide (I) powders (residual rate by HPLC)
Type: physicochemical
Conditions: 105° C. in the atmosphere under ordinary pressure
Description: The storage stability of Oligosaccharide Crystals (I) obtained in Examples 1 to 3 and freeze-dried Oligosaccharide (I) powders obtained in Reference Examples 1 to 3 was examined by keeping them at 105° C. in the atmosphere under ordinary pressure for 20 days and measuring the residual rate of Oligosaccharides (I).
The residual rate of Oligosaccharides (I) in the samples was measured by high performance liquid chromatography (HPLC) and expressed in terms of HPLC purity (%)
Measurement conditions for HPLC are as follows.
Analyzer: product of Dionex Corporation
Column temperature: 30° C.
Mobile phase: 10-100% aqueous solution of NaOH
(500 mmol/L) (Gradient elution in 11 minutes)
Detection: electrochemical detection (PAD method)

Residual rate of oligosaccharides: HPLC purity (%) (days that passed: 0)	Residual rate of oligosaccharides: HPLC purity (%) (days that passed: 1)	Residual rate of oligosaccharides: HPLC purity (%) (days that passed: 4)	Residual rate of oligosaccharides: HPLC purity (%) (days that passed: 7)	Residual rate of oligosaccharides: HPLC purity (%) (days that passed: 20)	SMILES
98.0	99.7	99.7	99.7	98.9	CC(=O)N[C@H]1[C@H](O[C@H]2[C@@H](O)[C@@H](CO)O[C@@H](O[C@H]3[C@H](O)[C@@H](O)C(O)O[C@@H]3CO)[C@@H]2O)O[C@H](CO)[C@@H](O)[C@@H]1O (stereo partly drawn) [Crystals No. 1, GlcNAcβ1, 3Galβ1, 4Glc]
99.3	99.0	99.2	99.0	98.8	CC(=O)N[C@H]1[C@H](O[C@H]2[C@@H](O)[C@@H](CO)O[C@@H](O[C@H]3[C@H](O)[C@@H](O)C(O)O[C@@H]3CO)[C@@H]2O)O[C@H](CO)[C@@H](O[C@@H]2O[C@H](CO)[C@H](O)[C@H](O)[C@H]2O)[C@@H]1O (stereo partly drawn) [Crystals No. 2, Galβ1, 4GlcNAcβ1, 3Galβ1, 4Glc]
98.8	99.3	99.0	99.0	99.3	CC(=O)N[C@H]1[C@H](O[C@H]2[C@@H](O)[C@@H](CO)O[C@@H](O[C@H]3[C@H](O)[C@@H](O)C(O)O[C@@H]3CO)[C@@H]2O)O[C@H](CO)[C@@H](O[C@@H]2O[C@H](CO)[C@H](O)[C@H](O[C@@H]3O[C@H](CO)[C@@H](O)[C@H](O)[C@H]3NC(C)=O)[C@H]2O)[C@@H]1O (stereo partly drawn) [Crystals No. 3, GlcNAcβ1, 3Galβ1, 4GlcNAcβ1, 3Galβ1, 4Glc]
99.3	98.6	97.6	96.2	90.9	CC(=O)N[C@H]1[C@H](O[C@H]2[C@@H](O)[C@@H](CO)O[C@@H](O[C@H]3[C@H](O)[C@@H](O)C(O)O[C@@H]3CO)[C@@H]2O)O[C@H](CO)[C@@H](O[C@@H]2O[C@H](CO)[C@H](O)[C@H](O)[C@H]2O)[C@@H]1O (stereo partly drawn) [Freeze-dried Galβ1, 4GlcNAc-β1, 3Galβ1, 4Glc powders] [Galβ1,4GlcNAcβ1,3Galβ1,4Glc]
99.8	99.7	97.0	98.8	93.8	CC(=O)N[C@H]1[C@H](O[C@H]2[C@@H](O)[C@@H](CO)O[C@@H](O[C@H]3[C@H](O)[C@@H](O)C(O)O[C@@H]3CO)[C@@H]2O)O[C@H](CO)[C@@H](O)[C@@H]1O (stereo partly drawn) [Freeze-dried GlcNAcβ1, 3Gal-β1, 4Glc powders] [GlcNAcβ1,3Galβ1,4Glc]
98.6	98.2	97.4	95.4	85.2	CC(=O)N[C@H]1[C@H](O[C@H]2[C@@H](O)[C@@H](CO)O[C@@H](O[C@H]3[C@H](O)[C@@H](O)C(O)O[C@@H]3CO)[C@@H]2O)O[C@H](CO)[C@@H](O[C@@H]2O[C@H](CO)[C@H](O)[C@H](O[C@@H]3O[C@H](CO)[C@@H](O)[C@H](O)[C@H]3NC(C)=O)[C@H]2O)[C@@H]1O (stereo partly drawn) [Freeze-dried GlcNAcβ1, 3Gal-β1, 4GlcNAcβ1, 3Galβ1, 4Glc powd] [GlcNAcβ1,3Galβ1,4GlcNAcβ1,3Galβ1,4Glc]
